The source of these data is article PMC7036801, “Synthesis of New Cisplatin Derivatives from Bile Acids” (Molecules, 2020).

What is called melting point is the temperature, or range, at which the solid turns liquid. What is called IC50 is the concentration that inhibits the measured activity by half.

Data set [1] has as its system T-lymphoblastic leukemia (CEM). The data set is described as follows: Cytotoxicity assay (Alamar Blue), CEM. The class given is cell-based, human. The conditions noted are these: CEM cells, 72 h of treatment, in DMF. How it is done: (§1) All new platinum(II) complexes were screened for cytotoxic activity against following tumor cell lines: T-lymphoblastic leukemia (CEM), epithelial breast carcinoma (MCF7), and cervical carcinoma cell lines (HeLa) (Table 2). A control of cytotoxicity was done with normal human fibroblasts (BJ) and human umbilical vein endothelial cells (HUVEC). The cytotoxicity of all substances in BJ and HUVEC was very similar. […] Its sensitivity against HeLa cell line (7.0 µM) was better than that of cisplatin (11.4 µM). However, the toxicity of 23a against normal human cells (BJ and HUVEC) was similar to that of cisplatin. […] Taking into account lack of activity of cholic and hyodeoxycholic acids-based complexes at studied concentrations (against all tested cell lines IC50 > 50 µM) we can suppose that modifications of bile acids should be focused on the most lipophilic lithocholic acid derivatives. The results presented here provide an inspiration for further studies in this area.
(§2) Cisplatin derivatives were evaluated for their cytotoxic activities in vitro in following cell lines derived from various tumors: T-lymphoblastic leukemia (CEM), epithelial breast carcinoma (MCF7) and cervical carcinoma cell lines (HeLa) (all from ECACC, UK) and also in normal human fibroblasts (BJ; from ATCC, USA). Human umbilical vein endothelial cells (HUVEC) were a kind gift from Prof Jitka Ulrichová (Medical Faculty, Palacký University, Olomouc, Czech Republic). HUVEC were grown in ECPM medium (Provitro, Berlin, Germany). Six serial 3-fold dilutions in triplicate of each drug in DMF was administered in every cell line for 72 h. Alamar Blue dye was used for staining of living cells only. IC50 values (50% inhibitory concentrations) were calculated as the proportions of surviving cells. A detailed procedure for the cytotoxicity assay was described previously, except for using Alamar Blue dye instead of Calcein AM [37]. Briefly, the percentage of surviving cells in each well was calculated by dividing the intensity of the fluorescence signals from the exposed wells by the intensity of signals from control wells and multiplying by 100. These ratios were then used to construct dose–response curves, from which IC50 values, i.e., concentrations of the respective compounds that were lethal to 50% of the tumor cells, were calculated. The results obtained from cytotoxicity assays are shown in Table 2 (mean values ± SD obtained from three independent experiments performed in triplicate).
A general note: The colour change of resazurin is a common sign of viable cells or microbes.

In data set [2] the test system is epithelial breast carcinoma (MCF7). In words: Cytotoxicity assay (Alamar Blue), MCF7. It counts as cell-based, human. The conditions noted are these: MCF7 cells, 72 h of treatment, in DMF. How it is done:
as §1, §2

The test system of data set [3] is cervical carcinoma cell lines (HeLa). In words: Cytotoxicity assay (Alamar Blue), HeLa. It counts as cell-based, human. The conditions noted are these: HeLa cells, 72 h of treatment, in DMF. The method, then:
as §1, §2

Data set [4] has as its system normal human fibroblasts (BJ). In words: Cytotoxicity assay (Alamar Blue), BJ. The class given is cell-based. To be noted: BJ cells, 72 h of treatment, in DMF. The method, then: as §1, §2
Data set [5] concerns human umbilical vein endothelial cells (HUVEC). In words: Cytotoxicity assay (Alamar Blue), HUVEC. To be noted: 72 h of treatment, in DMF. The class given is cell-based. How it is done: as §1, §2
Where [6] appears, read: test done at temperature 37 °C due to solubility problems.

`C[C@H](CCCNCCCN)[C@H]1CC[C@H]2[C@@H]3CCC4C[C@H](O)CC[C@]4(C)[C@H]3C[C@H](O)[C@]12C` (stereo partly drawn): the melting point was in the range of 64 to 66 °C.
On the same count and under the same terms, the same measure for `C[C@H](CCCNCCN)[C@H]1CC[C@H]2[C@@H]3CCC4C[C@H](O)CC[C@]4(C)[C@H]3CC[C@]12C` (stereo partly drawn): 107 to 110 °C; for `C[C@H](CCCNCCCN)[C@H]1CC[C@H]2[C@@H]3CCC4C[C@H](O)CC[C@]4(C)[C@H]3CC[C@]12C` (stereo partly drawn): 92 to 94 °C.
In the case of “cis-Dichloro-24-[(N-2′-aminoeth-1′-yl-κN)aminocholan-3α-ol-κN]platinum(II) [22a]”, the concentration for half-maximal inhibition (IC50) was 40.2 ± 2.6 µM in data set [1] (setting [6]); > 50 µM in data set [2] (setting [6]); > 50 µM in data set [3] (setting [6]); > 50 µM in data set [4] (setting [6]); > 50 µM in data set [5] (setting [6]).
`N.N.[Cl][Pt][Cl]` [cisplatin]: the IC50 in data set [1] (mean ± S.D.) was 0.8 ± 0.1 µM; in data set [2] (mean ± S.D.), 7.7 ± 1.7 µM; in data set [3] (mean ± S.D.) it was 11.4 ± 3.8 µM; in data set [4] (mean ± S.D.), 6.9 ± 0.9 µM; in data set [5] (mean ± S.D.), 5.5 ± 1.1 µM.
`C[C@H](CCCNCCN)[C@H]1CC[C@H]2[C@@H]3CCC4C[C@H](O)CC[C@]4(C)[C@H]3C[C@H](O)[C@]12C` (stereo partly drawn) registered a melting point of 70 to 72 °C.
For the molecule “cis-Dichloro-24-[(N-3′-aminoprop-1′-yl-κN)aminocholane-3α,12α-diol-κN]platinum(II) [23b]”, the IC50 came out at 31.6 ± 3.5 µM in data set [1] (mean ± S.D.); 23.3 ± 4.7 µM in data set [2] (mean ± S.D.); 36.2 ± 4.3 µM in data set [3] (mean ± S.D.); 42.5 ± 3.2 µM in data set [4] (mean ± S.D.); 34.4 ± 5.6 µM in data set [5] (mean ± S.D.).
For “cis-Dichloro-24-[(N-3′-aminoprop-1′-yl-κN)aminocholan-3α-ol-κN]platinum(II) [23a]”, the half-maximal inhibitory concentration (IC50) in data set [1] (mean ± S.D.) turned out to be 3.6 ± 0.1 µM; in data set [2] (mean ± S.D.), 7 ± 0.5 µM; in data set [3] (mean ± S.D.) it was 7 ± 0.2 µM; in data set [4] (mean ± S.D.), 6.3 ± 0.8 µM; in data set [5] (mean ± S.D.), 6.9 ± 0.6 µM.
For “cis-Dichloro-24-[(N-2′-aminoeth-1′-yl-κN)aminocholane-3α,12α-diol-κN]platinum(II) [22b]”, the IC50 in data set [1] (mean ± S.D.) amounted to 37.1 ± 6.8 µM; in data set [2] (mean ± S.D.) it was 20.5 ± 3.1 µM; in data set [3] (mean ± S.D.), 35.5 ± 5.3 µM; in data set [4] (mean ± S.D.) it was 36.6 ± 5.1 µM; in data set [5] (mean ± S.D.), 38.2 ± 0.6 µM.
Turning to `C[C@H](CCCNCCN)[C@H]1CC[C@H]2[C@@H]3C[C@H](O)C4C[C@H](O)CC[C@]4(C)[C@H]3CC[C@]12C` (stereo partly drawn), the melting point is 72 to 74 °C.
